The test system of data set [1] is TNBC cell lines MDA-MB-231, MDA-MB-468, SUM159. The experiment in a line: MTT cell viability assay, 24 h exposure, three TNBC cell lines. Format: cell-based. The procedure:
Cell Viability Assay for Compounds 1-8: The cytotoxicity for compounds 1-8 was assessed in three Triple Negative Breast Cancer cell lines: MDA-MB-231, MDA-MB-468, an SUM159. Cells were grown to 80% confluency in T75 flasks. Media was discarded and trypsin added for 5 minutes to detach cells. Media was added to neutralize the trypsin and mixture was transferred to centrifuge tube. After centrifugation at 2000 RPM for 5 minutes, the pellet was washed with PBS and resuspended in 2 mL appropriate media. Cell density was assessed via hemocytometer and solution diluted to 40,000 cells/mL. A 96-well clear bottom plate was prepared by adding media to rows 1 and 8 and columns 1, 2, 11, and 12 to prevent evaporation from impacting sample wells. Cells were plated in the inner wells with 100 μL per well (4,000 cells/well). Plates were placed in the incubator at 37° C. and 5-10% CO2 overnight to allow cells to acclimate and adhere.
Compounds 1-8 were prepared as 80 mM stock solutions in DMSO. The stock was diluted 20 μL to 4 mL with the appropriate media to yield a new stock concentration of 400 μM and DMSO concentration of 0.5% v/v. This stock was used for six serial dilutions (1/2×) to obtain a range of concentrations from 6.25 to 400 μM. […]
Plates were removed from the incubator and treatment solutions removed. […] Plates were then read on a Biotek Synergy H1 Plate Reader at 570 nm (peak absorbance). […]
For orientation: Formazan colour is commonly taken as a measure of viable cells.

A further data set concerns SUM159 mammosphere. The experiment in a line: Mammosphere formation assay in SUM159. Format: cell-based. Conditions: SUM159, half or full IC50 concentration, 6 days. The procedure:
The ability of Compounds 1, 7A, and 7B to prevent mammosphere formation was assessed in SUM159, a Triple Negative Breast Cancer cell line. Cells were grown to 80% confluency in T75 flasks in DMEM supplemented with 10% FBS, 1% amphotericin, 1% penicillin/streptomycin, and 5 μg/mL insulin, Media was discarded and trypsin added for 5 minutes to detach cells. Media was added to neutralize the trypsin and mixture was transferred to centrifuge tube. After centrifugation at 2000 RPM for 5 minutes, the pellet was washed with PBS and resuspended in 2 mL mammosphere media. Mammosphere media consists of MammoCult Human Medium (StemCell Technologies) supplemented with Heparin ([…], StermCellTechnologies) and Hydrocortisone (0.48 μg/ml, StemCell Technologies). Cell density was assessed via hemocytometer and solution diluted to 8,000 cells/mL in mammosphere media. A 24-well ultra-low-attachment clear bottom plate was prepared. Cells were plated in all wells with 500 μL per well (4,000 cells/well). […]
(§1) To further characterize the improved bioactivity of compounds 7A and 7B to compound 1, colonogenic and mammmosphere formation assays were performed in TNBC cell line SUM159 at full and half IC50 values (FIG. 7A-7B). […] Using colony formation assay, we evaluated the antiproliferative effects of 7A in SUM159 cells. […]

For another data set, the system named is SUM159. The experiment in a line: Colony formation assay in SUM159. It counts as cell-based. Conditions: SUM159, half and full IC50 concentrations, 6 days. The method, then:
The ability of compounds 1, 7A, and 7B to prevent colony formation was assessed in SUM159, a Triple Negative Breast Cancer cell line. Cells were grown to 80% confluency in T75 flasks in DMEM supplemented with 10% FBS, 1% amphotericin, 1% penicillin/streptomycin, and 5 μg/mL insulin. Media was discarded and trypsin added for 5 minutes to detach cells. Media was added to neutralize the trypsin and mixture was transferred to centrifuge tube. After centrifugation at 2000 RPM for 5 minutes, the pellet was washed with PBS and resuspended in 2 mL of above media. Cell density was assessed via hemocytometer and solution diluted to 2,000 cells/mL. Cells were plated in 6-well clear bottom plates at 2,000 cells/well. Treatment conditions included control (0.5% DMSO), and compounds 1, 7A, and 7B at both half and full IC5. concentrations, All treatments were plated in triplicate for a total of 21 wells used. Plates were placed in the incubator at 37° C. and 5-10% CO2 for six days. […]
as §1

Data set [2] concerns TNBC cells, including MDA-MB-231 and MDA-MB-468 cells. Conditions: 24 h; read-out: activity of machilin D (comparison value); cited from earlier work.

Consider `C/C=C/c1ccc(O[C@@H](C)[C@@H](OCC(C)C)c2ccc(O)c(OC)c2)c(OC)c1` (racemic) [Compound 7A], for which the “cytotoxicity (IC50) comparison of diastereomers” value in data set [1] (MTT, all three TNBC cell lines) is “significantly improved cytotoxicity values over 7B”. The mammosphere growth result with SUM159 mammosphere is “effective inhibition”. The colony formation entry with SUM159 is recorded as “colony formation was inhibited”.

Turning to `C/C=C/c1ccc(O[C@@H](C)[C@@H](O)c2ccc(O)c(OC)c2)c(OC)c1` [machilin D], the IC50 in data set [2] is about 100 µM.

As for machilin C/D [Compound 1], the IC50 in data set [1] (24 h exposure, range across MDA-MB-468, MDA-MB-231, SUM159, diastereomeric mixture) is 167 to 180 µM. Further, in the data set with SUM159 mammosphere, the mammosphere growth result was “slow colony formation and mammosphere growth”. The colony formation result with SUM159 is “slow colony formation”.

The values are drawn from patent US20250090480A1, “UNIQUE ANALOGS OF NATURAL LIGNANS USEFUL FOR TREATING TRIPLE NEGATIVE BREAST CANCER” (University of Kentucky Research Foundation, priority 2023, published 2025).
